Take `COC(=O)CC(=O)c1cc(OC)c2c(c1)OCO2`: the melting point lay in the range of 65.5 to 66.5 °C.
As for `COc1cccc(-c2oc3ccccc3c(=O)c2OCCCCCCN2CCC(O)CC2)c1`, the melting point was 119 to 120 °C.
`S=c1[nH]cnn1C[C@]1(c2ccccc2)O[C@@H]1c1ccc(Cl)c(Cl)c1Cl` (relative stereo) had a melting point of 168 to 171 °C.
`COc1cc(C(=O)N2Cc3ccccc3Cc3ccccc32)ccc1NC(=O)c1ccc(Cl)cc1Cl`: the melting point lay within 212 to 214 °C.
The figure for `CC(C)c1cccc(C(C)C)c1NC(=O)CN1C(=O)N(c2ccc(S(C)(=O)=O)cc2)C2(CCCCC2)C1=O` is 250 °C; for `CCOC(=O)C1=C(C(F)(F)F)Nc2n[nH]cc2C1c1ccc(Cl)cc1` (stereo unspecified) it is 176 to 178 °C.
Regarding `CC(=O)c1ccc(N2CCN(c3ccncc3)CC2)cc1`, the melting point is 176 to 177 °C.
The figure for `CS(=O)(=O)Nc1cc2occ(Nc3ccccc3)c(=O)c2cc1Oc1ccccc1` is 212 to 213 °C; for `CCOC(=O)C1=CCCCC1S(=O)(=O)Nn1c(C)ccc1C` (stereo unspecified) it is 96 to 97 °C.
The figure for `CCN[C@H]1C[C@H](CCCOCCOC)S(=O)(=O)c2sc(S(N)(=O)=O)cc21` (relative stereo) is 177 to 179 °C; for `N#Cc1cnc2cc3cc(O)ccc3cc2c1Nc1ccc(Cl)cc1Cl` it is 267 to 269 °C; for `CCOC(=O)c1nnc2ccc(C(C)=O)cc2c1O` it is 250 to 252 °C.
Then `O=P(O)(O)c1ccc2ccccc2n1`, with 200 °C.
`Nc1nc2ccc(Sc3ccccc3)cc2s1` displayed a melting point of 180 to 182 °C.
The figure for `N#Cc1ccc(OCCCCN2C(=O)c3ccccc3C2=O)cc1` is 129 to 130 °C; for `CS(=O)(=O)C(=C1CN(C(c2ccccc2)c2ccccc2)C1)c1ccc(Cl)cc1` it is 192 °C.
Compound `CN(Cc1cc2c(=O)c(C(=O)NCc3ccc(Cl)cc3)cn(C)c2o1)CC(O)c1cnccn1` (single isomer, unassigned; (+)) registered a melting point of 148 to 151 °C.
The figure for `O=S(=O)(Oc1ccc2ccc(OS(=O)(=O)C(F)(F)F)cc2c1)C(F)(F)F` is 60 to 62 °C.
Then `O=C(NCc1ccc2ccccc2c1)C1=C(C(=O)Nc2cc(OC3CCCC3)c(Cl)cc2F)CCCC1`, with 174 to 175 °C; and `COC(c1ccc(Cl)c2nc3n(c12)CCCN3c1ccc(Cl)cc1Cl)(C1CC1)C1CC1`, with 99 to 100 °C; and `c1ccc2nc(N3CCNCC3)c(OCCOc3cncnc3)nc2c1`, with 115 to 117 °C.
Consider `Cc1c2c(nn1-c1ccccc1)c(Cl)nc1ccccc12`, for which the melting point lay in the range of 208 to 209 °C.
Then `Cn1nc(C(F)(F)F)c(C(=O)O)c1Sc1ccc(F)cc1`, with 190 to 194 °C.
The figure for `CC(C)NC1=Nc2cccnc2SC1` is 135 to 139 °C; for `CC(=O)SC(C)CNC(=O)c1cc(Cl)cc(C)c1NC(=O)c1cc(C(F)(F)F)nn1-c1ncccc1Cl` (stereo unspecified) it is 137 to 139 °C.
Then `CCC1(C)CC(C)(C)c2cc(O)ccc21` (stereo unspecified), with 86 °C.
Regarding `Nc1c(C(=O)c2ccccc2O)oc2ccc(Cl)cc12`, the melting point lay in the range of 208 to 210 °C.
Then `c1ccc2c(NCCc3c[nH]cn3)nsc2c1`, with 222 to 224 °C.
The figure for `COc1cc2c(c(OC)c1OC)C(=O)O[C@H]2CO` is 178 to 180 °C; for `COc1ccc([C@@H](CC(N)=O)N2Cc3ccccc3C2=O)cc1OC` it is 191 to 193 °C; for `N=C(N)c1ccc2cc(OC(=O)C3CC3)ccc2c1` it is 214 to 217 °C.
The figure for `CCOC(OCC)c1cc(=O)[nH]c(N)n1` is 198 to 203 °C; for `C=CCC(F)(F)C(O)C(CC(C)C)NC(=O)c1ccccc1` (stereo unspecified) it is 110 °C; for `O=S1(=O)N=CN(C2CC2)c2cc(Cl)c(F)cc21` it is 205 to 206 °C.
`CC(C)C[C@H](NC(=O)OCC1c2ccccc2-c2ccccc21)C(=O)N[C@H]1CCOC1OCc1ccccc1` (stereo partly specified) returned a melting point of 116 to 117 °C.
Then `CCOC(=O)Cc1cnc(NS(C)(=O)=O)s1`, with 153 to 155 °C; and `COc1ccc(N(C)c2nc(NC(=O)C(C)(C)C)nc3[nH]c4ccccc4c23)cc1`, with 288 to 289 °C; and `O=C(O)CCc1ccc(NS(=O)(=O)c2ccc(Cl)cc2)cn1`, with 144 to 146 °C.
The compound `COc1cccc2c(=O)n(C(C)(C)C(=O)O)c(=O)[nH]c12` came in with a melting point of 255 to 258 °C.
With `O=C(O)Cc1cccc(NC(=O)NCC(=O)N2[C@@H](c3ccccc3O)CC[C@H]2c2ccccc2)c1` (racemic), the melting point was found to be 165 °C.
Then `Cc1nc(NCc2ccccn2)c2c(-c3ccccc3)csc2n1`, with 110 to 112 °C; and `O=C(O)c1cc(-c2ccc(Cl)cc2)n(-c2ccc(Cl)cc2Cl)n1`, with 185 °C; and `COc1ccc(CCc2ccncc2N)cc1OC1CCCC1`, with 108 to 110 °C.
Then `CC(=O)SCC(=O)c1cc(S(=O)(=O)N(C)C)ccc1Cl`, with 84 to 88 °C.
For the compound `CC(N=Cc1ccc(O)cc1)c1ccc(Br)cc1` (single isomer, unassigned; (-)), the melting point was in the range of 156 to 161 °C.
The figure for `CC1CN(c2cc3c(cc2F)c(=O)c(C(=O)O)cn3CCF)CCN1` (stereo unspecified) is 226 to 227 °C; for `C[Si](C)(C)OC1c2cc(Br)ccc2-c2ccc(Br)cc2C1O[Si](C)(C)C` (stereo unspecified) it is 144 to 145 °C.
For the compound `CS(=O)(=O)c1ccc(Oc2cc(OCc3ccccc3)c3[nH]c(C#N)cc3c2)cc1`, the melting point lay within 209 to 210 °C.
The figure for `Cc1cc(-n2ccnc2)c2cccc(OCc3c(Cl)ccc(S(=O)(=O)N4CCC[C@H]4C(=O)NCC4CCN(CCCC(=O)O)CC4)c3Cl)c2n1` is 178 °C; for `CCCCCCCCc1ccc(CCC(CC)(CCOC(C)=O)NC(C)=O)cc1` (stereo unspecified) it is 108 to 110 °C.
As to `CN1CCc2cc(C=O)sc2C(c2ccccc2)C1` (stereo unspecified), the melting point is 88 °C.
Then `CC(C)(C)C1=NN(c2ccc(C(=O)O)cc2)C(c2ccc([N+](=O)[O-])cc2)C1` (stereo unspecified), with 245 °C; and `CCOC(=O)COc1ccc(C(=O)Nc2ccccc2Oc2cccc(-c3nnn[nH]3)c2)cc1`, with 165 to 166 °C.
The figure for `Cc1cc(-c2nncc3c(C(C)(C)C)c(OCc4ccccn4)nn23)no1` is 175 to 178 °C; for `Cc1cc(C)cc(Nn2cnc(C)c2-c2ccccc2)c1` it is 154 to 156 °C; for `Cc1cc2[nH]c(C)nc(NCCN3CCOCC3)c-2n1` it is 237 to 238 °C.
The figure for `CCOP(=O)(OCC)Oc1cc(CC)ccc1C1CCN(CCCCNC(=O)c2ccc(NC(=O)c3ccc(Cl)cc3)cc2)CC1` is 158 to 160 °C; for `CC(C)(CCn1cnc(-c2ccccc2)c1)NCC(O)c1ccc(O)c(NS(C)(=O)=O)c1` (stereo unspecified) it is 133 to 136 °C; for `Clc1ccc2c(c1)c(-c1ccccc1)nc1nncn12` it is 295 to 297 °C.
On to `CCOC(=O)N1CCN(c2ccc(-n3cnn(C(C)(C)C(=O)c4ccc(Cl)cc4)c3=O)cc2)CC1`, for which the melting point worked out at 137 °C.
As to `CN1C(=O)NC(=O)C1=Cc1cc(OCCCS(=O)(=O)c2ccccc2)ccc1[N+](=O)[O-]`, the melting point lay within 147 to 158 °C.
The figure for `O=C(Nc1nccs1)c1nc(-c2ccc(N3CCC(N4CCOCC4)CC3)cc2)[nH]c1-c1ccc(Cl)cc1` is 165 to 170 °C.
Then `CCOC(=O)c1cccc(-c2ccc3c(c2)C(=O)CCC3)c1`, with 89 to 90 °C; and `COc1ccc2c(c1)c1c(n2C)CCCC1=O`, with 150 to 151 °C; and `COc1ccccc1OCC(O)CN1CCCC(Cn2c(=O)[nH]c3ccc(Cl)cc32)C1` (stereo unspecified), with 167 °C.
Then `CC(C)Cn1nc(OCCCc2ccc(OC(C)C)cc2OCc2ccc(Cl)cc2Cl)cc1CCC(=O)O`, with 133 to 134 °C; and `NS(=O)(=O)C(Br)(Br)S(=O)(=O)c1ccc(Br)cc1`, with 192 °C.
Compound `COc1ccccc1-n1c(=O)[nH]c2c(C(N)=O)nc(-c3ccccc3C(F)(F)F)nc21` gave a melting point of 237 to 240 °C.
The figure for `Nc1ncc(C2CCN(c3ccc(Cl)cc3)CC2)c(N)n1` is 254 to 255 °C; for `OC(CNCCNc1ccc2[nH]ncc2c1)COc1ccccc1` (stereo unspecified) it is 150 to 165 °C; for `CCC1=NNC(C)=C(C(=O)NN)C1c1cccc([N+](=O)[O-])c1` (stereo unspecified) it is 98 °C.
Consider `N#Cc1cc2cc(C(O)(C(F)(F)F)C(F)(F)F)ccc2[nH]1`, for which the melting point is 183 to 185 °C.
Turning to `O=C(O)c1cnc(Oc2ccccc2)s1`, the melting point was 172 to 173 °C.
The figure for `NC(=Nc1ccc(-n2cccc2)c(CNC(=O)CCCCC2CCSS2)c1)c1cccs1` (stereo unspecified) is 156 to 158 °C; for `O=C(O)C(Oc1ccc(Cl)cc1)Oc1ccc(C2CCNc3ccccc32)cc1` (stereo unspecified) it is 152 to 155 °C.
The figure for `CCCc1c(OCCCOc2ccc(C(=O)CO)c(OC)c2CCC)ccc2c1OC(C(=O)OC)CC2` (stereo unspecified) is 87 to 88 °C; for `CCCCCN(C(=O)Nc1ccc(C(=O)O)cn1)c1ccc2c(c1)C(C)(C)CCC2(C)C` it is 175 to 180 °C; for `Cc1nnc(-c2ccc3occ(-c4cnn(Cc5cccnc5)c4)c3c2)o1` it is 137 to 138 °C.
Then `Cc1cc(=O)n2c3c(cc(C(O)(C(F)(F)Cl)C(F)(F)Cl)cc13)CC2`, with 256 to 257 °C.
The compound `COc1cc(-c2cccs2)cc(OC)c1/C=C/C(=O)c1ccc(C(=O)O)cc1` returned a melting point of 256 to 258 °C.
Then `CN1CCC(OC2c3cccc(CCc4ccccc4)c3CCn3cc(-c4ccccc4)nc32)CC1` (stereo unspecified), with 67 °C; and `CCCCNc1c(C(=O)OCC)c(C)nc2[nH]c(O)nc12`, with 249 to 252 °C.
Regarding `Cc1cc(C=O)ccc1C(=O)Nc1ncc(Cl)cn1`, the melting point fell in the range of 169 to 172 °C.
The figure for `O=C(O)c1cccn2c(-c3ccc(F)cc3)cnc12` is above 400 °C; for `CCOC(=O)C(NC(=O)CSC)C(=O)OCC` it is 56 to 58 °C; for `COc1ccc(OCc2ccccc2)cc1CC#N` it is 63 to 65 °C.

The values are drawn from a melting point compilation (Tetko et al.; mined from patent text by program, amines drawn as free bases though some values may be those of a salt).
